The subject of one experiment is H929 cells. Kind of experiment: Cell viability assay (Cell TiterGlo). Conditions: Cell TiterGlo luminescence. In kind it is cell-based. As to the method: The cell viability assay was performed using H929 cells. Cells were seeded in 96-well plates at 10,000 cells/well and, after overnight incubation, treated with compounds in a dose response of 3-fold dilutions from 10 μM to 0.005 μM ([…], 0.1% final DMSO concentration). After 24 hours at 37° C., cell viability was measured using Cell TiterGlo reagent (Promega) with a luminescence reader.
In general terms: Cellular ATP, detected with luciferase, serves as a proxy for viable cell number.

For the next experiment, the target named is CDK9/Cyclin T1 (Homo sapiens (Human), UniProt P50750). The experiment is described as follows: CDK9 enzyme assay (LANCE ULight TR-FRET kinase assay). In kind it is biochemical. The conditions noted are these: 1000 μM ATP, 100 nM ULight MBP, kinase reaction 1 hour. The method in brief:
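Human CDK9/Cyclin T1 phosphorylating 100 nM ULight-MBP with 1000 μM ATP in HEPES/MgCl2 buffer, 1 h reaction. Stopped with 20 mM EDTA plus 0.5 nM Eu anti-phospho-MBP antibody, incubated 1 h, read by TR-FRET (ex 320 nm, em 615/665 nm).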

Setting [1] is: Homo sapiens, NCI-H929, 24 hours at 37° C.

Chain of CDK9/Cyclin T1 (P50750 whole entry): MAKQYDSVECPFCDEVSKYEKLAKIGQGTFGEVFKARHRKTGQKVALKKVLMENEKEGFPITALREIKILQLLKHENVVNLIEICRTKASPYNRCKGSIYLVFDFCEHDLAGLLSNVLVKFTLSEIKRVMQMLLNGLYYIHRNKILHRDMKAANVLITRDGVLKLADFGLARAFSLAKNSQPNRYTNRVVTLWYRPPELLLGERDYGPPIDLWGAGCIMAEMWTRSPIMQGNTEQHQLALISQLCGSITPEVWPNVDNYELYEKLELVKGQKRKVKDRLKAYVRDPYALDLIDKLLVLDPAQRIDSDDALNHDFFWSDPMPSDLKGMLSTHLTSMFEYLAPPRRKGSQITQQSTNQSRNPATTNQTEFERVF
Chain of CDK9/Cyclin T1 (O60563 whole entry partner): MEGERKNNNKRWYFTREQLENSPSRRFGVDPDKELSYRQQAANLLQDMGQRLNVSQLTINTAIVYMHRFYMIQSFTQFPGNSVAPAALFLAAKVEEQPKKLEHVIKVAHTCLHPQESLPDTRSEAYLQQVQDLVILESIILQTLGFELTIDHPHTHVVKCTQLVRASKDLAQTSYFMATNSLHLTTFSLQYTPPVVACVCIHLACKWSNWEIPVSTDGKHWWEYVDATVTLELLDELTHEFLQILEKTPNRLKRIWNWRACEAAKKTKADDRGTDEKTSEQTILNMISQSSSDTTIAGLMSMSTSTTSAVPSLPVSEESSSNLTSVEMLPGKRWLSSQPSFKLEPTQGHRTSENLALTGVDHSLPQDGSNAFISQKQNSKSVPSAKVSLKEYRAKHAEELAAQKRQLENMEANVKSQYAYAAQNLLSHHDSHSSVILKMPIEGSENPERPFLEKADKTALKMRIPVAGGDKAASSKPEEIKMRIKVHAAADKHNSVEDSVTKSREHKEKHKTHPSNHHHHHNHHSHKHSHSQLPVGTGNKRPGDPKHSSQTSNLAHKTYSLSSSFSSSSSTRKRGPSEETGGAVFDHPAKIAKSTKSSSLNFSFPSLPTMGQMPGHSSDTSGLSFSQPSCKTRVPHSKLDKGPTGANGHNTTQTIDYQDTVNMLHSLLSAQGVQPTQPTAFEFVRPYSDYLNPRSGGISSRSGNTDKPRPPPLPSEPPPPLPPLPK

By IC50 is commonly meant the point on the concentration scale where inhibition reaches its midpoint. Low values mean greater potency, high ones weaker potency. Regarding `COC(=O)C[C@H]1CC[C@@H](N2CC=C(c3[nH]c4nccc5c4c3CN(C)c3cc(F)c(F)cc3-5)CC2)CC1` [Example 134, methyl{cis-4-[4-(9,10-difluoro-7-methyl-6,7-dihydro-4H-3,4,7-triazadibenzo[cd,f]azulen-5-yl)-3,6-dihydropyridin-1(2H)-yl]cyclohexyl}acetate], the results for the half-inhibitory concentration (IC50) in the experiment on H929 cells (setting [1]) and against CDK9/Cyclin T1 were 0.31 µM and 0.047 µM, respectively.
The like results for `CN1Cc2c(C3=CCN(CC(=O)N4CCC[C@H]4CO)CC3)[nH]c3nccc(c23)-c2cc(F)ccc21` [Example 17, 2-[4-(10-fluoro-7-methyl-6,7-dihydro-4H-3,4,7-triazadibenzo[cd,f]azulen-5-yl)-3,6-dihydropyridin-1(2H)-yl]-1-[(2S)-2-(hydroxymethyl)pyrrolidin-1-yl]ethanone] were, in that order, 0.009 µM and 0.07 µM.
The like results for `CN(CCO)C(=O)CN1C2C=C(c3[nH]c4nccc5c4c3CN(C)c3ccc(F)cc3-5)CC1CCC2` (stereo not drawn) [Example 103, 2-[3-(10-fluoro-7-methyl-6,7-dihydro-4H-3,4,7-triazadibenzo[cd,f]azulen-5-yl)-9-azabicyclo[3.3.1]non-2-en-9-yl]-N-(2-hydroxyethyl)-N-methylacetamide] were, in that order, 0.051 µM and 0.086 µM.
In the same order, the values of `CNC(=O)N1CC=C(c2[nH]c3nccc4c3c2CN(C)c2ncccc2-4)CC1` [Example 139, N-methyl-4-(7-methyl-6,7-dihydro-4H-3,4,7,8-tetraazadibenzo[cd,f]azulen-5-yl)-3,6-dihydropyridine-1(2H)-carboxamide] are 0.18 µM and 0.094 µM.
As to `CN1Cc2c(C3=C[C@H]4CC[C@@H](C3)N4)[nH]c3nccc(c23)-c2cc(F)ccc21` [Example 62, 5-[(1R,5S)-8-azabicyclo[3.2.1]oct-2-en-3-yl]-10-fluoro-7-methyl-6,7-dihydro-4H-3,4,7-triazadibenzo[cd,f]azulene], the IC50 worked out at 0.15 µM with H929 cells (setting [1]) and 0.046 µM on CDK9/Cyclin T1.
The like results for `CN1Cc2c(C3=CCN(CC(=O)N(C)C4CC(O)C4)CC3)[nH]c3ncc(F)c(c23)-c2cc(F)ccc21` (stereo not drawn) [Example 109, 2-[4-(1,10-difluoro-7-methyl-6,7-dihydro-4H-3,4,7-triazadibenzo[cd,f]azulen-5-yl)-3,6-dihydropyridin-1(2H)-yl]-N-(3-hydroxycyclobutyl)-N-methylacetamide] were, in that order, 0.01 µM and 0.043 µM.
In the same order, the values of `CN1Cc2c(C3=CCN([C@H]4CC[C@H](C(=O)O)CC4)CC3)[nH]c3ncc(F)c(c23)-c2cc(F)ccc21` [Example 166, trans-4-[4-(1,10-difluoro-7-methyl-6,7-dihydro-4H-3,4,7-triazadibenzo[cd,f]azulen-5-yl)-3,6-dihydropyridin-1(2H)-yl]cyclohexanecarboxylic acid] are 0.008 µM and 0.075 µM.
In the same order, the values of `CN(CC(O)CO)C(=O)CN1CC=C(c2[nH]c3ncc(F)c4c3c2CN(C)c2ccc(F)cc2-4)CC1` (stereo not drawn) [Example 110, 2-[4-(1,10-difluoro-7-methyl-6,7-dihydro-4H-3,4,7-triazadibenzo[cd,f]azulen-5-yl)-3,6-dihydropyridin-1(2H)-yl]-N-(2,3-dihydroxypropyl)-N-methylacetamide] are 0.014 µM and 0.045 µM.
Turning to `CC[C@H]1c2c(C3=CCN(CC(=O)N(C)C)CC3)[nH]c3nccc(c23)-c2cc(F)ccc2N1C` [Example 168, 2-{4-[(6S)-6-ethyl-10-fluoro-7-methyl-6,7-dihydro-4H-3,4,7-triazadibenzo[cd,f]azulen-5-yl]-3,6-dihydropyridin-1(2H)-yl}-N,N-dimethylacetamide], the IC50 was determined as 0.008 µM in the experiment on H929 cells (setting [1]) and 0.06 µM against CDK9/Cyclin T1.
As for `O=C(O)CC1CCC(N2CC=C(c3[nH]c4nccc5c4c3COc3ccc(F)cc3-5)CC2)CC1` (stereo not drawn) [Example 165, {4-[4-(10-fluoro-4,6-dihydro-7-oxa-3,4-diazadibenzo[cd,f]azulen-5-yl)-3,6-dihydropyridin-1(2H)-yl]cyclohexyl}acetic acid], the half-maximal inhibitory concentration (IC50) with H929 cells (setting [1]) is 0.97 µM; against CDK9/Cyclin T1, 0.39 µM.
In the case of `CN1Cc2c(C3=C[C@@H]4COC(=O)N4CC3)[nH]c3nccc(c23)-c2cc(F)ccc21` [Example 151, (8aR)-7-(10-fluoro-7-methyl-6,7-dihydro-4H-3,4,7-triazadibenzo[cd,f]azulen-5-yl)-1,5,6,8a-tetrahydro[1,3]oxazolo[3,4-a]pyridin-3-one], the IC50 amounted to 0.19 µM with H929 cells (setting [1]) and 0.037 µM against CDK9/Cyclin T1.
For `CN1CCc2c(C3=CCN([C@H]4C[C@@H](C(=O)O)C4)CC3)[nH]c3nccc(c23)-c2cc(F)ccc21` [Example 188, cis-3-[4-(8-fluoro-5-methyl-1,3,4,5-tetrahydro-1,5,12-triazabenzo[4,5]cycloocta[1,2,3-cd]inden-2-yl)-3,6-dihydropyridin-1(2H)-yl]cyclobutanecarboxylic acid], the results for the IC50 with H929 cells (24 hours at 37° C.) and on CDK9/Cyclin T1 were 0.29 µM and 0.15 µM, respectively.
For the molecule `CC(C)[C@@H](NC1CC=C(c2[nH]c3nccc4c3c2CN(C)c2ccc(F)cc2-4)CC1)C(=O)O` (stereo partly drawn) [Example 29, N-[4-(10-fluoro-7-methyl-6,7-dihydro-4H-3,4,7-triazadibenzo[cd,f]azulen-5-yl)cyclohex-3-en-1-yl]-D-valine], the IC50 in the experiment on H929 cells (setting [1]) was 0.094 µM; at CDK9/Cyclin T1 it was 0.046 µM.
The like results for `CC[C@H]1c2c(C3=CCN([C@H]4C[C@H](C(=O)O)C4)CC3)[nH]c3nccc(c23)-c2cc(F)ccc2N1C` [Example 189, trans-3-{4-[(6S)-6-ethyl-10-fluoro-7-methyl-6,7-dihydro-4H-3,4,7-triazadibenzo[cd,f]azulen-5-yl]-3,6-dihydropyridin-1(2H)-yl}cyclobutanecarboxylic acid] were, in that order, 0.006 µM and 0.11 µM.
As to `CN1Cc2c(C3=C[C@H]4COC(=O)N4CC3)[nH]c3nccc(c23)-c2cc(F)ccc21` [Example 152, (8aS)-7-(10-fluoro-7-methyl-6,7-dihydro-4H-3,4,7-triazadibenzo[cd,f]azulen-5-yl)-1,5,6,8a-tetrahydro[1,3]oxazolo[3,4-a]pyridin-3-one], the half-maximal inhibitory concentration (IC50) in the experiment with H929 cells (setting [1]) was 0.66 µM; against CDK9/Cyclin T1 it was 0.041 µM.
In the same order, the values of `CNC(=O)C1CC=C(c2[nH]c3nccc4c3c2CN(C)c2ccc(F)cc2-4)CC1` (stereo not drawn) [Example 52, 4-(10-fluoro-7-methyl-6,7-dihydro-4H-3,4,7-triazadibenzo[cd,f]azulen-5-yl)-N-methylcyclohex-3-ene-1-carboxamide] are 0.15 µM and 0.063 µM.
The like results for `CN1c2ccc(F)cc2-c2ccnc3[nH]c(C4=CCNCC4)c(c23)C1C(=O)O` (stereo not drawn) [Example 33, 10-fluoro-7-methyl-5-(1,2,3,6-tetrahydropyridin-4-yl)-6,7-dihydro-4H-3,4,7-triazadibenzo[cd,f]azulene-6-carboxylic acid] were, in that order, 0.15 µM and 0.54 µM.
In the same order, the values of `CCOC(=O)NS(=O)(=O)N1CC=C(c2[nH]c3nccc4c3c2CN(C)c2ccc(F)cc2-4)CC1` [Example 3, ethyl{[4-(10-fluoro-7-methyl-6,7-dihydro-4H-3,4,7-triazadibenzo[cd,f]azulen-5-yl)-3,6-dihydropyridin-1(2H)-yl]sulfonyl}carbamate] are 0.59 µM and 0.047 µM.

The record behind these values is patent publication US9328112B2, “Tetracyclic CDK9 kinase inhibitors” (AbbVie Inc., priority 2014, dated 2016).
